Assay results taken from patent US20040033595A1, “Conditionally replicating vectors for inhibiting viral infections” (priority 2001, published 2004).

How the values were obtained:
Human CD4+ T cells = assay: Sensitivity of human CD4+ T cells to BG and BCNU (expansion in culture); format: cell-based; conditions: for dose dependence of CD4 cell killing / toxicity: increasing dose
Protocol: CD14 depleted CD4+ cells were purified from peripheral blood with or without cytokine mobilization. […] Under appropriate conditions in the absence of […] and BCNU, CD4+ cells can be expanded up to 100 fold over 10 days in culture. Doses tested were 0, 0.2, 0.5, 2, 5, 10, 20, 30, and 40 μM BG and 0, 2, 5, 10, 20, 30, and 40 μM BCNU. A series of three experiments were performed.

HIV = conditions: human, in vivo; cited from earlier work
[1] = tested on: modified U5-containing crHIV RNA; assay: In vitro ribozyme cleavage of radiolabeled modified crHIV U5 RNA (PAGE, autoradiography); format: biochemical; conditions: target to ribozyme molar ratio 1:2, 37° C. 5 min
Protocol: (§1) To confirm the resistance to ribozyme cleavage of the crHIV vectors, in vitro transcription was performed. To accomplish this, the ribozyme sequences were cloned into the Xho I site of pBluescript KSII (Stratagene, La Jolla, Calif.). A 0.21 kilobase pair (kb) Bgl II fragment containing the mutated crHIV U5 region similarly was excised from the crHIV vector and inserted into the Bam HI site of pBluescript KSII. The resultant modified pBluescript KSII vectors were linearized with Bss HII prior to in vitro transcription. A similar plasmid expressing wild-type HIV U5 RNA (described in Myers et al. (1994), supra) was employed as a control. It was linearized with Eco RI prior to in vitro transcription.
(§2) Radiolabeled U5 HIV RNA and ribozyme RNA were produced by in vitro transcription of the vectors, as previously described (Dropulic' et al. (1992), supra). The radiolabeled transcripts were incubated together (at a target to ribozyme molar ratio of 1:2) in 1×transcription buffer containing 40 mM Tris-HCl, pH 7.5, 6 mM MgCl2, 2 mM Spermidine, and 10 mM NaCl. The samples were heated to 65° C., and then cooled to 37° C. for 5 min prior to the addition of stop buffer solution containing 95% formamide, 20 mM EDTA, 0.05% Bromophenol Blue, and 0.05% Xylene Cyanol FF. The products' were then resolved by denaturing polyacrylamide gel electrophoresis (PAGE), and detected by autoradiography.

wild-type U5-HIV RNA = assay: In vitro ribozyme cleavage of radiolabeled wild-type U5 HIV RNA (PAGE, autoradiography); format: biochemical; conditions: target to ribozyme molar ratio 1:2, 37° C. 5 min
Protocol: as §1, §2

With `O=NN(CCCl)C(=O)NCCCl` [BCNU, 1,3-bis(2-chloroethyl)-1-nitrosourea] the “growth delay of CD4+ cells” value (Human CD4+ T cells; BCNU alone) was “did not result in growth delay” and the “dose dependence of CD4 cell killing / toxicity” value (Human CD4+ T cells) was “toxicity to CD4 cells increased with the BCNU dose”.
In the case of `Nc1nc(OCc2ccccc2)c2nc[nH]c2n1` [BG, O^6-benzylguanine], the “dose dependence of CD4 cell killing / toxicity” value (Human CD4+ T cells) is reported as “did not increase cell killing”.
In the case of `Nc1ccn([C@H]2CC[C@@H](CO)O2)c(=O)n1` [ddC], the “range virustatic in most patients” value (HIV) is given as 0.005-0.25 mg/kg body weight.
In the case of “CACACAACACTGATGAGGCCGAAAGGCCGAAACGGGCACA (expressed or natural sequence) [the +115 ribozyme]”, the “cleavage of modified U5-containing crHIV RNA” value [1] is reported as “cleavage products were not detected” and the “cleavage of wild-type U5-HIV RNA” value (wild-type U5-HIV RNA) is reported as “cleavage was readily observed”.
